Experimental findings from PubChem BioAssay AID1204 (EPA DSSTox, 2008) are described below.

Results filed as inconclusive are left out. Active and inactive are the calls of the source.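 Rule for the calls: active = relative estrogen receptor binding affinity above 1E-5, where estradiol scores 100; inconclusive = weak binder, under half inhibition at top dose, or affinity below 1E-5; inactive = no binding seen, affinity zero.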

In this data set the test system is estrogen receptor (rat uterine cytosol). The data set can be described thus: DSSTox (NCTRER) National Center for Toxicological Research Estrogen Receptor Binding Database.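 For relative binding affinity: ratio of estradiol IC50 over compound IC50 times 100 so estradiol equals 100.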 The following applies: rat uterine cytosol ER competitive binding, RBA; for relative binding affinity: stronger effect = higher value. From the text: Researchers within FDA's National Center for Toxicological Research (NCTR) generated a database of experimental estrogen receptor binding results for the express purpose of developing improved QSAR models to predict ER binding affinities.The NCTR ER database is a structurally diverse set of natural, synthetic, and environmental estrogens covering most known estrogenic classes and spanning a wide range of biological activity. It represents the largest published ER binding database of same-assay results generated in a single laboratory. […] Information on the percent purity and purchasing source for all chemicals are not included in the DSSTox SDF, but can be obtained from the original NCTR ER Source database and Main Citations listed below. The main citation (Fang et al., 2001) surveys the NCTR ER database from a chemical class based, structure-activity relationship (SAR) perspective. Qualitative SAR characteristics of the NCTR ER database are discussed and a set of general hierarchical rules for identifying potential estrogens are presented. The DSSTox NCTRER SDF augments the original NCTR ER database with chemical class and SAR information abstracted from Fang et al. (2001). The DSSTox SDF file supplements the measured ER relative binding affinity for each chemical (ER_RBA) with chemical class assignment to one of 6 major estrogenic classes further divided into 20 subclasses (ChemClass_ERB), along with a qualitative activity measure, ActivityCategory_ER_RBA. A brief narrative SAR rationale pertaining to ER RBA patterns observed by Fang et al. (2001) for each of the 20 subclasses within the database are provided in the field, ActivityCategory_Rationale_ChemClass_ERB. The original NCTR ER database, from which the expanded DSSTox NCTRER was formed, is contained within a larger Endocrine Disruptor Knowledge Base (EDKB) accessible from the FDA Source Website. That website provides online access to a relational database comprised of in vitro and in vivo experimental data for about 2000 natural and synthetic compounds, much of this extracted from the literature and representing testing in many laboratories. Data are included for biological assays that measure estrogenic and androgenic activity. Estrogenic endpoints include in vitro assays for estrogen receptor competitive binding affinity, cell proliferation, and reporter-gene assays, and in vivo assays for uterotrophic activity (i.e., uterine weight gain and vaginal cornification). The database also contains a bibliography of over 1200 citations, many of which include abstracts.
Estrogen receptor relative binding affinity is determined using a competitive receptor binding assay as described in NCTRER Ref (Blair et al., 2000). Briefly, a chemical competes with radiolabeled E2 (i.e., estradiol) for binding to the ER in rat uterine cytosol and the concentration of chemical that causes 50% inhibition of E2 binding (i.e., IC50) is measured. The ER_RBA is calculated by dividing the IC50 of E2 (9X10-10M) by the IC50 of the competitor and multiplying by 100 (E2 RBA = 100). The validated assay tested 1nM E2 with concentrations of competitor ranging from 1nM to 1mM. The larger the ER_RBA values, the greater the binding affinity; ER_RBA > 100 means compound has greater binding affinity than natural ER ligand, E2. […] Activity Score is mapping of LOG_ER_RBA values (ER-RBA>1E-5), spanning activity range [MIN, MAX] onto Integer 20-100 Activity range, where 100 is highest potency and 20 is lowest active potency. If Activity Outcome is "active": Activity Score = 80 * INTEGER[(LOG_ER_RBA - MIN)/(MAX […] MIN)]. If Activity Outcome is "inconclusive" (i.e., slight binder): Activity Score = 5.

The mark [1] stands for this setting: ChemClass_ERB: Phytoestrogens Flavanones.
[2] abbreviates: ChemClass_ERB: Diphenylmethanes DDTs.
The mark [3] stands for this setting: ChemClass_ERB: Phytoestrogens Flavones.
The mark [4] stands for this setting: ChemClass_ERB: Diphenylmethanes Benzophenones.
The mark [5] stands for this setting: ChemClass_ERB: Phytoestrogens Mycoestrogens.
The mark [6] stands for this setting: ChemClass_ERB: Steroids With aromatic A ring.
Where [7] appears, read: ChemClass_ERB: DES Hexestrol derivatives.
The mark [8] stands for this setting: ChemClass_ERB: Diphenylmethanes Diphenolalkanes.
The mark [9] stands for this setting: ChemClass_ERB: Steroids Without aromatic A ring.
The mark [10] stands for this setting: ChemClass_ERB: Phytoestrogens Chalconoids.
The mark [11] stands for this setting: ChemClass_ERB: Phytoestrogens Isoflavones.
Where [12] appears, read: ChemClass_ERB: Phenols Parabens.

With `O=C1CC(c2ccccc2)Oc2ccccc21` (configuration not stated), under setting [1], the outcome was inactive.
Regarding `CCCCCCCCCc1ccc(O)cc1`, where the note is “ChemClass_ERB: Phenols Alkyl”, the relative binding affinity is 0.0295%.
With `CCCCCCO`, the outcome (ChemClass_ERB: Misc) was inactive.
In the case of `ClC(Cl)=C(c1ccc(Cl)cc1)c1ccc(Cl)cc1`, under setting [2], the result was inactive.
With `O=c1c(O)c(-c2ccc(O)c(O)c2)oc2cc(O)cc(O)c12`, the outcome under setting [3] was inactive.
Consider `O=C1CC(c2cccc(O)c2)Oc2ccccc21` (configuration not stated), for which the relative binding affinity under setting [1] was 0.00165%.
Consider `Oc1ccccc1Cl`, for which the outcome (ChemClass_ERB: Phenols Alkyl) was inactive.
On to `CC[C@@H](c1ccc2cc(O)ccc2c1)C(C)(C)C(=O)O`, for which, for the setting “ChemClass_ERB: Misc”, the relative binding affinity is 0.955%.
On to `C=CCc1ccc(O)c(OC)c1`, for which the outcome (ChemClass_ERB: Phenols Alkyloxy) was inactive.
`O=C(c1ccccc1)c1ccc(O)cc1O`: the relative binding affinity under setting [4] was 0.00245%.
With `C[C@H]1CCCC(=O)CCCCCc2cc(O)cc(O)c2C(=O)O1`, the relative binding affinity under setting [5] is 2.09%.
Turning to `CCCCN(C)C(=O)CCCCCCCCCC[C@@H]1Cc2cc(O)ccc2[C@H]2CC[C@]3(C)[C@@H](O)CC[C@H]3[C@H]12`, under setting [6], the relative binding affinity is 14.4%.
Take `O=c1cc(-c2ccccc2)oc2ccccc12`: the outcome under setting [3] was inactive.
Consider `CCC(c1ccc(O)cc1)C(CC)c1cc(C)c(O)c(C)c1` (configuration not stated), for which the relative binding affinity under setting [7] is 8.91%.
The same measure, in the same setting: the result for `CCC(c1ccc(O)c(O)c1)C(CC)c1ccc(O)c(O)c1` (configuration not stated) reads 15.5%.
For the compound `Clc1ccc(-c2ccc(Cl)cc2)cc1`, the outcome (ChemClass_ERB: Biphenyls PCBs) was inactive.
For `CC(C)(c1ccccc1)c1ccc(O)cc1`, the relative binding affinity under setting [8] is 0.00501%.
Regarding `c1ccc2c(c1)OCCOCCOc1ccccc1OCCOCCO2`, where the note is “ChemClass_ERB: Misc”, the result was inactive.
For `Oc1ccc(CCc2ccccc2)cc1`, under setting [7], the relative binding affinity is 0.00204%.
`CCCCC(CC)COC(=O)CCCCC(=O)OCC(CC)CCCC` (configuration not stated): for the setting “ChemClass_ERB: Misc”, the outcome was inactive.
Same read-out and setting: the same measure for `CC12CCC(CC1)C(C)(C)O2`: “inactive”.
Consider `O=c1cc(-c2ccccc2)oc2ccc(O)cc12`, for which the relative binding affinity under setting [3] is 0.00038%.
For the compound `CC/C(=C(/c1ccc(OCCN(C)C)cc1)c1cccc(O)c1)c1ccccc1`, under “ChemClass_ERB: DES Triphenylethylenes”, the relative binding affinity was 15.1%.
For `C#C[C@]1(O)CC[C@H]2[C@@H]3CCc4cc(O)ccc4[C@H]3[C@@H](OC)C[C@@]21C`, the relative binding affinity under setting [6] was 13.8%.
For the compound `C[C@]12C[C@H](O)[C@H]3[C@@H](CCC4=CC(=O)CC[C@@]43C)[C@@H]1CC[C@@H]2C(=O)CO`, under setting [9], the result was inactive.
For the compound `Clc1ccc(-c2ccc(Cl)cc2Cl)c(Cl)c1`, the result (ChemClass_ERB: Biphenyls PCBs) was inactive.
With `O=C(/C=C/c1ccc(O)cc1)c1ccc(O)cc1O`, the relative binding affinity under setting [10] is 0.055%.
Consider `C[C@]12CC[C@@H](O)C[C@@H]1CC[C@@H]1[C@@H]2CC[C@]2(C)[C@@H](O)CC[C@@H]12`, for which the relative binding affinity under setting [9] is 0.0021%.
As for `C[C@]12CC[C@@H]3c4ccc(O)cc4C[C@@H](CCCCCCCCCS(=O)CCCC(F)(F)C(F)(F)F)[C@H]3[C@@H]1CC[C@@H]2O` (some centres not stated), the relative binding affinity under setting [6] was 37.1%.
`O=c1c(-c2ccc(O)cc2)coc2cc(O)ccc12`: the relative binding affinity under setting [11] was 0.022%.
As for `C[C@]12CC[C@@H]3c4ccc(O)cc4CC[C@H]3[C@@H]1CCC2=O`, under setting [6], the relative binding affinity was 7.24%.
Take `CCOC(=O)c1ccccc1C(=O)OCC`: the outcome (ChemClass_ERB: Misc) was inactive.
With `c1ccc2c(c1)ccc1c3ccccc3ccc21`, for the setting “ChemClass_ERB: Misc”, the result was inactive.
The same measure, in the same setting: the same measure for `O=S1OCC2C(CO1)C1(Cl)C(Cl)=C(Cl)C2(Cl)C1(Cl)Cl` (configuration not stated): “inactive”; for `O=C(O)/C=C/c1ccccc1`: “inactive”.
Still for that read-out and setting: the result for `CCc1cccc(CC)c1N(COC)C(=O)CCl` reads “inactive”; that for `ClC1=C(Cl)C2(Cl)C3C(Cl)C=CC3C1(Cl)C2(Cl)Cl` (configuration not stated), “inactive”.
Same read-out and setting: the same measure for `CNC(=O)Oc1cccc2c1OC(C)(C)C2`: “inactive”.
In the case of `CC[C@H](CC[C@@H](C)[C@H]1CC[C@H]2[C@@H]3CC=C4C[C@@H](O)CC[C@]4(C)[C@H]3CC[C@]12C)C(C)C`, the result under setting [9] was inactive.
Turning to `COc1ccc(C(c2ccc(OC)cc2)C(Cl)(Cl)Cl)cc1`, the outcome under setting [2] was inactive.
`Oc1cccc(-c2ccccc2)c1`: the relative binding affinity (ChemClass_ERB: Biphenyls nonchlorinated) is 0.00036%.
Take `O=C(O)c1ccccc1C(c1ccc(O)cc1)c1ccc(O)cc1`: the relative binding affinity under setting [8] was 0.00021%.
Regarding `CCCOC(=O)c1ccc(O)cc1`, the relative binding affinity under setting [12] is 0.0006%.
As to `CC(C)CCC[C@@H](C)[C@H]1CC[C@H]2[C@@H]3CC=C4C[C@@H](O)CC[C@]4(C)[C@H]3CC[C@]12C`, the outcome under setting [9] was inactive.
`O=c1c(-c2ccc(O)cc2)coc2cc(O)c(O)cc12`: the outcome under setting [11] was inactive.
Consider `CCC(C)(C)c1ccc(O)cc1`, for which the relative binding affinity (ChemClass_ERB: Phenols Alkyl) is 0.00054%.
With `C[C@H]1CCC[C@H](O)CCC/C=C/c2cc(O)cc(O)c2C(=O)O1`, the relative binding affinity under setting [5] is 42.7%.
For the compound `CCCCCCCCOC(=O)c1ccccc1C(=O)OCCCCCCCC`, where the note is “ChemClass_ERB: Misc”, the outcome was inactive.
`O=C(CCc1ccc(O)cc1)c1c(O)cc(O)cc1O`: the relative binding affinity under setting [10] is 0.069%.
As to `CCC(C)c1ccccc1` (configuration not stated), the outcome (ChemClass_ERB: Misc) was inactive.
As to `O=C(OCc1ccccc1)c1ccc(O)cc1`, the relative binding affinity under setting [12] is 0.00288%.
Consider `Oc1ccc(CCc2ccc(O)cc2)cc1`, for which, under setting [7], the relative binding affinity is 0.0363%.
Regarding `C[Si](C)(Cc1ccccc1)O[Si](C)(C)Cc1ccccc1`, the outcome (ChemClass_ERB: Misc) was inactive.
Same read-out and setting: the result for `O=S(=O)(O)c1ccc2c(N=Nc3ccc(S(=O)(=O)O)c4ccccc34)c(O)c(S(=O)(=O)O)cc2c1` reads “inactive”.
With `Oc1ccc(-c2cc(Cl)ccc2Cl)cc1`, where the note is “ChemClass_ERB: Biphenyls PCBs”, the relative binding affinity was 0.0363%.
As for `COc1ccc(C(=O)c2ccccc2)c(O)c1`, the outcome under setting [4] was inactive.
As for `CCCCOC(=O)c1ccc(N)cc1`, the outcome (ChemClass_ERB: Misc) was inactive.
Same read-out and setting: the result for `ClC1=C(Cl)[C@]2(Cl)[C@@H]3[C@H]4C=CC(C4)[C@@H]3C1(Cl)C2(Cl)Cl` reads “inactive”.
On to `CC/C(=C(/CC)c1ccc(OC)cc1)c1ccc(O)cc1`, for which the relative binding affinity (ChemClass_ERB: DES Derivatives) was 20.4%.
As to `O=c1cc(-c2ccccc2)oc2cc(O)c(O)c(O)c12`, the relative binding affinity under setting [3] was 0.0009%.
For `ClC1C(Cl)C(Cl)C(Cl)C(Cl)C1Cl` (configuration not stated), the result (ChemClass_ERB: Misc) was inactive.
On to `O=C(c1ccc(O)cc1)c1ccc(O)cc1`, for which, for the setting “ChemClass_ERB: Diphenylmethanes Benzophenone”, the relative binding affinity is 0.0035%.
